These results are taken from US20170240511A1 (MERCK SHARP & DOHME CORP., priority 2014, published 2017).

The test deals with T1, Human HIF-PHD2 (Homo sapiens, UniProt Q9GZT9).
T1 construct: FLAG-tagged full length PHD2 expressed in and purified from baculovirus-infected Sf9 cells; FLAG; made in house; host or cells: baculovirus-infected Sf9 cells
T1 sequence (Q9GZT9 whole entry): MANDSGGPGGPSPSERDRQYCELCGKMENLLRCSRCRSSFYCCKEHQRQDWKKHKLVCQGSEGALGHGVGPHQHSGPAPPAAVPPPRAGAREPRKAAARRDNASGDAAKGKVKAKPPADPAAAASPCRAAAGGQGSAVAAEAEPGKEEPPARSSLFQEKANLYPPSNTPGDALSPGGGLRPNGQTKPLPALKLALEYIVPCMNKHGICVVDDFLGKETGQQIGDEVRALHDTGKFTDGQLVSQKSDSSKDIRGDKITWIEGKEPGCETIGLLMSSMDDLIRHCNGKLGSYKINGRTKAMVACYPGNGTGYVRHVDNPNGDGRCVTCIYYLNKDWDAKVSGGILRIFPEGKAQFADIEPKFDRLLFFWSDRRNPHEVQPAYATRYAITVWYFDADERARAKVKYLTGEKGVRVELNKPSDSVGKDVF
Description: HIF-PHD2 inhibition assay: time resolved fluorescence detection of HIF peptide hydroxylation. Type of test: biochemical. The conditions noted are these: FLAG-tagged full length PHD2; 0.2 μM 2-oxoglutarate, 0.5 μM HIF-1α peptide; 45 minutes at room temperature. As for the experimental part:
To each well of a 384-well plate, 1 μL of test compounds in DMSO (final concentration ranging from 0.3 nM to 10 μM) were added into 20 μl of assay buffer (50 mM Tris pH 7.4/0.01% Tween-20/0.1 mg/ml bovine serum albumin/10 μM ferrous sulfate/1 mM sodium ascorbate/20 μg/ml catalase) containing 0.15 μg/ml FLAG-tagged full length PHD2 expressed in and purified from baculovirus-infected Sf9 cells. After a 5 min preincubation at room temperature, the enzymatic reactions were initiated by the addition of 4 μL of substrates final concentrations of 0.2 μM 2-oxoglutarate and 0.5 μM HIF-la peptide biotinyl-[…] […] After incubation for 45 minutes at room temperature, the reactions were terminated by the addition of a 25 μL quench/detection mix to a final concentration of 1 mM ortho-phenanthroline, 0.1 mM EDTA, 0.5 nM anti-(His)6 LANCE reagent (Perkin-Elmer Life Sciences), 100 nM AF647-labeled streptavidin (Invitrogen), and 2 μg/ml (His)6-VHL complex {S. Tan Protein Expr. Purif. […] Inhibition of the catalytic activity of HIF-PHD1 and HIF-PHD3 can be determined similarly, except for HIF-PHD3, final concentrations of 4 μM 2-oxoglutarate is used during the reaction.
By IC50 is commonly meant the concentration needed to halve the response being measured. A higher IC50 goes with lower potency. As for `O=C(O)c1cnn(-c2cc(O)c(C(=O)NC(c3ccccc3)c3ccccc3)cn2)c1` [Example 1, 1-(5-(Benzhydrylcarbamoyl)-4-hydroxypyridin-2-yl)-1H-pyrazole-4-carboxylic acid], the IC50 came out at 0.875 nM.
Under `CCOC(=O)CCNC(=O)c1cc(O)c(C(=O)NC(c2ccccc2)c2ccccc2)cn1` [Example 2, ethyl 3-(5-(benzhydrylcarbamoyl)-4-hydroxypicolinamido)propanoate] stands 92.9 nM; under `COC(=O)C(C)CNC(=O)c1cc(O)c(C(=O)NC(c2ccccc2)c2ccccc2)cn1` (stereo not shown) [Example 3, methyl 3-(5-(benzhydrylcarbamoyl)-4-hydroxypicolinamido)-2-methylpropanoate], 136 nM.
With `O=C(N[C@H]1C[C@H](C(=O)O)C1)c1cc(O)c(C(=O)NC(c2ccccc2)c2ccccc2)cn1` [Example 3], the IC50 was determined as 1.64 nM.
The molecule `CCOC(=O)C1(CNC(=O)c2cc(O)c(C(=O)NC(c3ccc(Cl)cc3)c3ccc(Cl)cc3)cn2)CC1` [Example 5, ethyl 1-((5-((bis(4-chlorophenyl)methyl)carbamoyl)-4-hydroxypicolinamido)methyl) cyclopropanecarboxylate] had an IC50 of 184 nM.
`CCOC(=O)C(C)(C)CNC(=O)c1cc(O)c(C(=O)NC(c2ccccc2)c2ccccc2)cn1` [Example 5, ethyl 3-(5-(benzhydrylcarbamoyl)-4-hydroxypicolinamido)-2,2-dimethylpropanoate]: 276 nM corresponded to half-maximal inhibition (IC50).
Under `CCOC(=O)[C@H]1C[C@@H]1NC(=O)c1cc(O)c(C(=O)NC(c2ccccc2)c2ccccc2)cn1` [Example 6, (1S,2S)-ethyl 2-(5-(benzhydrylcarbamoyl)-4-hydroxypicolinamido)cyclopropanecarboxylate] stands 89.1 nM; under `CCOC(=O)[C@@H]1C[C@H]1NC(=O)c1cc(O)c(C(=O)NC(c2ccccc2)c2ccccc2)cn1` [Example 7, (1R,2R)-ethyl 2-(5-(benzhydrylcarbamoyl)-4-hydroxypicolinamido)cyclopropanecarboxylate], 37.3 nM.
The value for `CC(CNC(=O)c1cc(O)c(C(=O)NC(c2ccccc2)c2ccccc2)cn1)C(=O)O` (stereo not shown) [Example 10, 3-(5-(benzhydrylcarbamoyl)-4-hydroxypicolinamido)-2-methylpropanoic acid] was 1.89 nM.
The value for `O=C(NCC1(C(=O)O)CC1)c1cc(O)c(C(=O)NC(c2ccccc2)c2ccccc2)cn1` [Example 11, 1-((5-(benzhydrylcarbamoyl)-4-hydroxypicolinamido)methyl)cyclopropanecarboxylic acid] was 5.24 nM.
As to `O=C(O)CCCNC(=O)c1cc(O)c(C(=O)NC(c2ccccc2)c2ccccc2)cn1` [Example 12, 4-(5-(benzhydrylcarbamoyl)-4-hydroxypicolinamido)butanoic acid], the IC50 came to 1.02 nM.
Under `O=C(NCC(O)C(=O)O)c1cc(O)c(C(=O)NC(c2ccccc2)c2ccccc2)cn1` (stereo not shown) [Example 13, 3-(5-(benzhydrylcarbamoyl)-4-hydroxypicolinamido)-2-hydroxypropanoic acid] stands 1.28 nM; under `CC(C)(CNC(=O)c1cc(O)c(C(=O)NC(c2ccccc2)c2ccccc2)cn1)C(=O)O` [Example 14, 3-(5-(benzhydrylcarbamoyl)-4-hydroxypicolinamido)-2,2-dimethylpropanoic acid], 3.61 nM.
In turn, `O=C(N[C@H]1C[C@@H]1C(=O)O)c1cc(O)c(C(=O)NC(c2ccccc2)c2ccccc2)cn1` [Example 15, (1S,2S)-2-(5-(benzhydrylcarbamoyl)-4-hydroxypicolinamido)cyclopropanecarboxylic acid] had an IC50 of 6.69 nM.
The value for `O=C(N[C@@H]1C[C@H]1C(=O)O)c1cc(O)c(C(=O)NC(c2ccccc2)c2ccccc2)cn1` [Example 16, (1R,2R)-2-(5-(benzhydrylcarbamoyl)-4-hydroxypicolinamido)cyclopropanecarboxylic acid] was 6.55 nM; that for `O=C(NC12CC(C(=O)O)(C1)C2)c1cc(O)c(C(=O)NC(c2ccccc2)c2ccccc2)cn1` [Example 17, 3-(5-(benzhydrylcarbamoyl)-4-hydroxypicolinamido)bicyclo[1.1.1]pentane-1-carboxylic acid] was 23.4 nM.
